Measured values as given in ChEMBL document CHEMBL2203097, “7-Phenyl-pyrido[2,3-d]pyrimidine-2,4-diamines: novel and highly selective protein tyrosine phosphatase 1B inhibitors” (Bioorg Med Chem Lett, 2012).
Calls of active or inactive are those of the source. The rule behind the calls is not given here.

Experiments:
[1] = target: T1, Tyrosine-protein phosphatase non-receptor type 1 (Homo sapiens, UniProt P18031); assay: Inhibition of human PTP1B (1 to 321 amino acid residues) expressed in Escherichia coli using TRDI(pY)E as substrate incubated for 15 mins prior to substrate addition measured after 20 mins by malachite green staining-based colorimetric assay
T1 sequence (P18031 whole entry): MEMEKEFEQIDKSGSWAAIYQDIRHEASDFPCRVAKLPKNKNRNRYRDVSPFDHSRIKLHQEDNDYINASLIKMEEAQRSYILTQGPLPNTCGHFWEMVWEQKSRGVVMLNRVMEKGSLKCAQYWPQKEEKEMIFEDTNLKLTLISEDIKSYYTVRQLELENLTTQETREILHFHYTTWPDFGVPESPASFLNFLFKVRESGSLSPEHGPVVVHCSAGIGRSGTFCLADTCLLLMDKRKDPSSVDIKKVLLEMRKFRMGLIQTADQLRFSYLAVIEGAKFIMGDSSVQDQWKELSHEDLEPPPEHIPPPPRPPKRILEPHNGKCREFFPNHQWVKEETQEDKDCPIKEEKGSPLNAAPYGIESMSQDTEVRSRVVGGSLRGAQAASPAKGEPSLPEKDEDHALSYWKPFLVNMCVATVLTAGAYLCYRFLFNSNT

[2] = Volume of distribution in C57 mouse at 5 mg/kg, iv; type: ADME, organism-based; set-up: dose 5 mg/kg, route intravenous; details: in vivo
[3] = Oral bioavailability in C57 mouse at 50 mg/kg; type: ADME, organism-based; details: in vivo
[4] = Cmax in C57 mouse at 50 mg/kg, po; type: ADME, organism-based; set-up: dose 50 mg/kg, route oral; details: in vivo
Homo sapiens [5] = species on record: Homo sapiens; assay: Selectivity ratio of IC50 for LAR to IC50 for human PTP1B (1 to 321 amino acid residues)
[6] = Clearance in C57 mouse at 5 mg/kg, iv; type: ADME, organism-based; set-up: dose 5 mg/kg, route intravenous; details: in vivo
Homo sapiens [7] = species on record: Homo sapiens; assay: Selectivity ratio of IC50 for PTPalpha to IC50 for human PTP1B (1 to 321 amino acid residues)
Homo sapiens [8] = species on record: Homo sapiens; assay: Selectivity ratio of IC50 for HCP to IC50 for human PTP1B (1 to 321 amino acid residues)
[9] = target: T2, Tyrosine-protein phosphatase non-receptor type 1 (Homo sapiens) (UniProt P18031); details: 0.29 to 3.3 uM
T2 sequence (whole entry): T1 sequence (P18031 whole entry)
Description: Uncompetitive inhibition of human PTP1B (1 to 321 amino acid residues) expressed in Escherichia coli using DiFMUP as substrate at 0.29 to 3.3 uM by Lineweaver-Burke plot analysis

Homo sapiens [10] = species on record: Homo sapiens; assay: Selectivity ratio of IC50 for SHP2 to IC50 for human PTP1B (1 to 321 amino acid residues)
Homo sapiens [11] = species on record: Homo sapiens; assay: Selectivity ratio of IC50 for PTPbeta to IC50 for human PTP1B (1 to 321 amino acid residues)
Homo sapiens [12] = species on record: Homo sapiens; assay: Selectivity ratio of IC50 for CD45 to IC50 for human PTP1B (1 to 321 amino acid residues)
Homo sapiens [13] = species on record: Homo sapiens; assay: Selectivity ratio of IC50 for PTPepsilon to IC50 for human PTP1B (1 to 321 amino acid residues)
[14] = AUC in C57 mouse at 5 mg/kg, iv; type: ADME, organism-based; set-up: dose 5 mg/kg, route intravenous; details: plasma
[15] = Half life in C57 mouse at 50 mg/kg, po; type: ADME, organism-based; set-up: dose 50 mg/kg, route oral; details: in vivo
Homo sapiens [16] = species on record: Homo sapiens; assay: Selectivity ratio of IC50 for PTPgamma to IC50 for human PTP1B (1 to 321 amino acid residues)
[17] = AUC in C57 mouse at 50 mg/kg, po; type: ADME, organism-based; set-up: dose 50 mg/kg, route oral; details: plasma
Homo sapiens [18] = species on record: Homo sapiens; assay: Selectivity ratio of IC50 for TCPTP to IC50 for human PTP1B (1 to 321 amino acid residues)
Homo sapiens [19] = species on record: Homo sapiens; assay: Selectivity ratio of IC50 for YOP to IC50 for human PTP1B (1 to 321 amino acid residues)
[20] = Clearance in C57 mouse at 10 mg/kg, iv; type: ADME, organism-based; set-up: dose 10 mg/kg, route intravenous; details: in vivo
[21] = Volume of distribution in C57 mouse at 10 mg/kg, iv; type: ADME, organism-based; set-up: dose 10 mg/kg, route intravenous; details: in vivo
[22] = AUC in C57 mouse at 10 mg/kg, iv; type: ADME, organism-based; set-up: dose 10 mg/kg, route intravenous; details: plasma

Molecule `CCCc1cc2c(NC)nc(N)nc2nc1-c1ccccc1C(F)(F)F` has an IC50 [1] of 270 nM.
Work on `CNc1nc(N)nc2nc(-c3ccccc3Br)ccc12` yielded an IC50 [1] of 530 nM.
Molecule `CNc1nc(N)nc2nc(-c3ccc(Cl)cc3Cl)ccc12` has an IC50 [1] of 610 nM.
`CNc1nc(N)nc2nc(-c3ccccc3C(=O)O)ccc12` gave an IC50 [1] of 2390 nM.
In the case of `CNc1nc(N)nc2nc(-c3ccccc3[N+](=O)[O-])ccc12`, the IC50 [1] is reported as 1370 nM.
`CNc1nc(N)nc2nc(-c3ccccc3C(F)(F)F)ccc12` showed a Vd [2] of 1.8 L/kg, a bioavailability [3] of 66% and a Cmax [4] of 3530 ng/mL. It also gave a Ratio IC50 (Homo sapiens [5]) of over 100, an IC50 [1] of 480 nM and a clearance [6] of 61 mL/min/kg. For the same molecule, the Ratio IC50 (Homo sapiens [7]) was over 100, the Ratio IC50 (Homo sapiens [8]) was over 100 and the inhibition [9] was “Active”. It also gave a Ratio IC50 (Homo sapiens [10]) of over 100, a Ratio IC50 (Homo sapiens [11]) of over 100 and a Ratio IC50 (Homo sapiens [12]) of over 100. The Ratio IC50 (Homo sapiens [13]) was over 100, the AUC [14] was 1370 ng·h/mL and the half-life [15] was 7.2 h. It also gave a Ratio IC50 (Homo sapiens [16]) of over 100, an AUC [17] of 8990 ng·h/mL and a Ratio IC50 (Homo sapiens [18]) of 2. The Ratio IC50 (Homo sapiens [19]) was over 100.
With `CNc1nc(N)nc2nc(-c3ccccc3C(F)(F)F)c(S(C)(=O)=O)cc12` the IC50 [1] was 1000 nM.
Molecule `CNc1nc(N)nc2nc(-c3c(Oc4ccccc4)cccc3C(F)(F)F)ccc12` has a bioavailability [3] of 32%, a Cmax [4] of 2200 ng/mL and a Ratio IC50 (Homo sapiens [5]) of over 100. The IC50 [1] was 200 nM, the Ratio IC50 (Homo sapiens [7]) was over 100 and the clearance [20] was 24 mL/min/kg. The Ratio IC50 (Homo sapiens [8]) was over 100, the Vd [21] was 0.9 L/kg and the Ratio IC50 (Homo sapiens [10]) was over 100. It also gave a Ratio IC50 (Homo sapiens [11]) of over 100, a Ratio IC50 (Homo sapiens [12]) of over 100 and a Ratio IC50 (Homo sapiens [13]) of over 100. For the same molecule, the half-life [15] was 1.3 h, the Ratio IC50 (Homo sapiens [16]) was over 100 and the AUC [17] was 11000 ng·h/mL. The Ratio IC50 (Homo sapiens [18]) was 2, the Ratio IC50 (Homo sapiens [19]) was over 100 and the AUC [22] was 6970 ng·h/mL.
With `CNc1nc(N)nc2nc(-c3c(Cl)cccc3N3CCCC3)ccc12` the IC50 [1] was 820 nM.
Work on `CNc1nc(N)nc2nc(-c3cccc(Cl)c3Cl)ccc12` yielded an IC50 [1] of 1180 nM.
`CNc1nc(N)nc2nc(-c3c(F)cccc3C(F)(F)F)ccc12` showed an IC50 [1] of 260 nM.
In the case of `CNc1nc(N)nc2nc(-c3c(SC)cccc3C(F)(F)F)ccc12`, the IC50 [1] is reported as 350 nM.
`CCCNc1nc(N)nc2nc(-c3ccccc3C(F)(F)F)ccc12` showed an IC50 [1] of 2430 nM.
Work on `CNc1nc(N)nc2nc(-c3c(N4CCCCC4)cccc3C(F)(F)F)ccc12` yielded an IC50 [1] of 1350 nM.
For `CNc1nc(N)nc2nc(-c3ccccc3OC)ccc12`, the IC50 [1] was 2790 nM.
Work on `Nc1nc(NCCO)c2ccc(-c3ccccc3C(F)(F)F)nc2n1` yielded an IC50 [1] of 1850 nM.
Work on `CNc1nc(N)nc2nc(-c3c(N4CCCC4)cccc3C(F)(F)F)ccc12` yielded an IC50 [1] of 430 nM.
In the case of `CNc1nc(N)nc2nc(-c3cc(Cl)ccc3Cl)ccc12`, the IC50 [1] is reported as 960 nM.
Work on `CNc1nc(N)nc2nc(-c3ccccc3C(F)(F)F)c(C)cc12` yielded an IC50 [1] of 500 nM.
`CNc1nc(N)nc2nc(-c3c(F)cccc3N3CCCC3)ccc12` gave an IC50 [1] of 620 nM.
In the case of `CNc1nc(N)nc2nc(-c3ccccc3Cl)ccc12`, the IC50 [1] is reported as 1160 nM.
Work on `CNc1nc(N)nc2nc(-c3c(OC)cccc3C(F)(F)F)ccc12` yielded an IC50 [1] of 560 nM.
`CNc1nc(N)nc2nc(-c3c(N4CCOCC4)cccc3C(F)(F)F)ccc12` gave an IC50 [1] of 1150 nM.
With `CCNc1nc(N)nc2nc(-c3ccccc3C(F)(F)F)ccc12` the IC50 [1] was 1340 nM.
